Experiments:
[1] = PK studies in healthy mice (dynamic PET); assay type: in vivo, NMRI mice; parameters: Good brain uptake (grade) / Mouse PK Uptake (grade): key: −: poor; ∘: moderate; +: good; ++: very good; +++: excellent; settings: for Mouse PK De-fluorination (grade) / Mouse PK Uptake (grade) / Mouse PK Washout (grade): Table 2; for bone uptake in shoulder joint at 60 min (de-fluorination) / peak uptake in brain (tracer uptake in healthy mice after iv injection) / ratio of uptake peak/30 min (washout from healthy brain): healthy mice; for bone uptake in shoulder joint at 60 min (de-fluorination): after iv injection; for peak uptake in brain (tracer uptake in healthy mice after iv injection): PET; for ratio of uptake peak/30 min (washout from healthy brain): Table 1: ratio of uptake at 2 min and 30 min; on Good brain uptake (grade): key: −: poor; ∘: moderate; +: good; ++: very good; +++: excellent; on Mouse PK De-fluorination (grade): key: −: poor; ∘: moderate; +: good; ++: very good; +++: excellent; on Mouse PK Washout (grade): key: −: poor; ∘: moderate; +: good; ++: very good; +++: excellent
Method: NMRI mice (weight range 25-35 g) were injected intravenously with the ^18F-labeled compounds. Up to 150 μL of 1×PBS solution with 10%-15% EtOH or dilution medium ([…]) containing the ^18F-labeled compound (2-10 MBq) were injected. Anesthesia with isoflurane was induced before injection of the tracer and maintained during the image acquisition period. PET scans were performed using a SIEMENS INVEON small animal PET/CT scanner (Siemens, Knoxville, Tenn.). PET acquisition was started immediately before the radioactive dose was injected into the animal through the tail vein. Images were generated as dynamic scans for 60 minutes.
The peak uptake in the brain was set to 100% and washout curves were generated to evaluate the clearance of the activity from the normal brain (FIG. 2).

Tau = Tau (Homo sapiens, UniProt P10636); test: Competition binding to Tau in human AD brain homogenate with 18F-labeled Tau binder; settings: for binding affinity for Tau (in words): IC50 determined in AD brain homogenate; for high Tau binding (grade): Table 2, fluorine-19 derivatives; on high Tau binding (grade): key: −: poor; ∘: moderate; +: good; ++: very good; +++: excellent
Method: 20 μg of human Alzheimer disease brain homogenate was incubated with a dilution series of each test compound (1000 to 0.06 nM) in the presence of 800 Bq of ^18F-labeled Tau binder. The samples were shaken at 110 rpm for 45 min at 37° C. Samples were then filtered through GF/B 96 well filter plates and washed twice with 300 μL assay buffer (PBS containing 0.1% BSA and 2% DMSO). Thereafter, filter plates were sealed and a Fuji Film Imaging Plate (BAS-SR2025) was placed on top. The imaging plate was analyzed after overnight exposition using a Fuji Film BAS-5000. Non-specific signal was determined with samples containing ^18F-labeled Tau-reference binder in the presence of assay buffer without brain substrate and competitor. […] The unblocked ^18F-labeled Tau-binder signal was defined as total binding. IC50 values were calculated by Prism V6 (GraphPad) setting total binding to 100%.

MAO A = target: T1, MAO A (Mus musculus, UniProt Q64133); test: MAO A 18F-FEH competition assay in mouse brain homogenate; assay type: binding; settings: for low MAO A binding (grade): Table 2, IC50 in mouse brain homogenate
T1 construct: from tissue; host or cells: whole mouse brain homogenate
T1 sequence (Q64133 1-526): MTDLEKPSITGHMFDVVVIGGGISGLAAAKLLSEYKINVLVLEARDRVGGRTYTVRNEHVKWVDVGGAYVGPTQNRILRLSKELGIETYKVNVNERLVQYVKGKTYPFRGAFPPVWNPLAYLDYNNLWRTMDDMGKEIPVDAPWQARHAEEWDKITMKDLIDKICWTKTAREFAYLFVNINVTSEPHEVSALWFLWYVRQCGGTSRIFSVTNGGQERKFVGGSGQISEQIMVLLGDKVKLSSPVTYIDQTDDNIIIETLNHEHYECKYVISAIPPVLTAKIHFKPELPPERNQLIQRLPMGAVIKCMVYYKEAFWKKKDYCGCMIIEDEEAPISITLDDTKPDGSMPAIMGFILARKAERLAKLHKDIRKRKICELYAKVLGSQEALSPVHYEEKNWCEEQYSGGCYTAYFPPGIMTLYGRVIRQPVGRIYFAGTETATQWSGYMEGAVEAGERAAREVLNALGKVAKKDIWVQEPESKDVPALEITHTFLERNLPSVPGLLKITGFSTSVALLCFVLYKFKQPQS

Chain of Tau (P10636 623-708 limits assumed): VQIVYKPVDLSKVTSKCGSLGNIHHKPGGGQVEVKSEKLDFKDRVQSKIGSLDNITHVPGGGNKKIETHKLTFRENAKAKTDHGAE

Row | Structure (SMILES) | Mouse PK De-fluorination (grade) [1] | Mouse PK Uptake (grade) [1] | Mouse PK Washout (grade) [1] | bone uptake in shoulder joint at 60 min (de-fluorination) [1] | peak uptake in brain (tracer uptake in healthy mice after iv injection) [1] | ratio of uptake peak/30 min (washout from healthy brain) [1] | binding affinity for Tau (in words) (Tau) | high Tau binding (grade) (Tau) | low MAO A binding (grade) (MAO A) | selectivity over MAO A (in words) (MAO A) | Good brain uptake (grade) ([1]; Table 1) | Low retention in healthy brain (grade) ([1]; Table 1) | Fast washout from healthy brain (grade) ([1]; Table 1) | Low or minor de-fluorination (grade) ([1]; Table 1) | De-fluorination in mice (in words) ([1]; mouse, in vivo)
1 | Fc1cncc(-c2ccc3c(n2)[nH]c2ccncc23)c1 [Comparative Example 5 (F-5)] | + | ++ | + | (2.9% ID/g) | (5.3% ID/g) | (9.6) | inferior | ++ | +++ |  |  |  |  |  | 
2 | Fc1ccncc1-c1ccc2c(n1)[nH]c1ccncc12 [Comparative Example 6 (F-6)] |  | +++ | ++ | (4.8% ID/g) | (8.2% ID/g) | (14.5) | poor | − | +++ |  |  |  |  |  | 
3 | Fc1cccc(-c2ccc3c(n2)[nH]c2ccncc23)n1 [Comparative Example 7 (F-7)] | − | +++ |  | (11.1% ID/g) | (8.5% ID/g) | (7.0) | inferior | ++ | + | Inferior |  |  |  |  | 
4 | Fc1ccc(-c2ccc3c(n2)[nH]c2ccncc23)nc1 [Comparative Example 8 (F-8)] |  |  |  |  |  |  |  | +++ |  | Inferior |  |  |  |  | 
5 | Fc1ccnc(-c2ccc3c(n2)[nH]c2ccncc23)c1 [Comparative Example 9 (F-9)] |  |  |  |  |  |  | inferior | ++ | +++ |  |  |  |  |  | 
6 | Fc1cccnc1-c1ccc2c(n1)[nH]c1ccncc12 [Comparative Example 10 (F-10)] | − |  | − | (6.2% ID/g) | (2.1% ID/g) | (3.6) | poor | − | +++ |  |  |  |  |  | 
7 | Fc1ccc(-c2ccc3c(n2)[nH]c2ccncc23)cn1 [Compound F-2] | − | ++ | ++ | (6.2% ID/g) | (5.7% ID/g) | (10.9) |  | +++ | + | Inferior |  |  |  |  | 
8 | [18F]c1ccc(-c2ccc3c(c2)[nH]c2ccncc23)cn1 [Compound ^18F-1] |  |  |  |  |  |  |  |  |  |  | ++ | − |  |  | 
9 | [18F]c1ccc(-c2ccc3c(n2)[nH]c2ccncc23)cn1 [Compound ^18F-2] |  |  |  |  |  |  |  |  |  |  | ++ |  | + | − | De-fluorination in mice was found

Source: patent US10865207B2, “Compounds for imaging Tau protein aggregates” (AC IMMUNE S.A., priority 2016, dated 2020)
